Test results taken from publication PMC7188779, “Hydroxypropyl-β-Cyclodextrin Complexes of Styryllactones Enhance the Anti-Tumor Effect in SW1116 Cell Line” (Frontiers in Pharmacology, 2020).
“Also recorded” adds a separate entry of the source. Like-named read-outs stand apart in the source and are kept apart here.

How the values were obtained:
MCF7 (breast carcinoma) = test system: MCF7 (breast carcinoma); set-up: method as in Trieu et al., 2014; conditions: ref Trieu et al., 2014; cited from earlier work
HepG2 (liver cancer) = test system: HepG2 (liver cancer); set-up: method as in Trieu et al., 2014; conditions: ref Trieu et al., 2014; cited from earlier work
[1] = test system: KB (oral epidermoid carcinoma cell line); set-up: method as in Trieu et al., 2014; conditions: ref Trieu et al., 2014; cited from earlier work
[2] = test system: human hepatocellular carcinoma HepG2 cell line; assay: MTT antiproliferative assay, HepG2; assay type: cell-based; conditions: 24 h, 1.0-100.0 μM, means ± SEM (n=3)
Method: (§1) The human colon cancer SW1116 cell line, the human hepatocellular carcinoma SMMC-7721 cell line, the human gastric cancer SGC-7901 cell line, and the human hepatocellular carcinoma HepG2 cell line were kindly provided by Xiao-li Xu from the Cancer Center, Fudan University. The human embryonic kidney 293T (HEK293T) cell line was kindly donated by Professor You-hua Xie from Fudan University. These human cancer cell lines were cultured in DMEM medium or RPMI-1640 medium, whereas the HEK293T cell line was cultured in MEM medium. All of the cell lines were supplemented with 10% FBS, penicillin (100 U/ml), and streptomycin ([…]) under a humidified atmosphere of 5% CO2 at 37°C using a CO2 incubator (SANYO, Osaka, Japan). Cell count was assessed using the trypan blue dye exclusion method.
(§2) The antiproliferative effects of the treatments were evaluated using the MTT assay. Cells were seeded at a density of 5×10^3 cells/well in 96-well plates (Corning, NY, USA). After attachment, the culture media were replaced with various concentrations of chemicals for 24 h. Then, the media in 96-well plates were incubated with MTT reagent (5 mg/ml) for 4 h at 37°C. Subsequently, the culture medium was discarded and 100 μl of DMSO was added to each well, to solubilize the formazan crystal formed. The absorbance of formazan crystal solution was determined at 570 nm on a Multiskan FC from Thermo Fisher Scientific Inc. (Waltham, MA, USA).

[3] = test system: human gastric cancer SGC-7901 cell line; assay: MTT antiproliferative assay, SGC-7901; assay type: cell-based; conditions: 24 h, 1.0-100.0 μM, means ± SEM (n=3)
Method: as §1, §2

[4] = test system: human hepatocellular carcinoma SMMC-7721 cell line; assay: MTT antiproliferative assay, SMMC-7721; assay type: cell-based; conditions: for IC50: Homo sapiens, SMMC-7721, means ± SEM (n=3)
Method: as §1, §2

[5] = test system: human colon cancer SW1116 cell line; assay: MTT antiproliferative assay, SW1116; assay type: cell-based; conditions: for IC50: Homo sapiens, SW 1116, means ± SEM (n=3); for cell viability of SW1116 cells compared with normal group (0 μM): 30 μM, p < 0.01
Method: as §1, §2

[6] = test system: human embryonic kidney 293T (HEK293T) cell line; assay: MTT cytotoxicity against normal cell line HEK293T; assay type: cell-based; conditions: 24 h; for IC50: Homo sapiens, HEK-293T, means ± SEM (n=3)
Method: as §1, §2

[7] = test system: caspase-3, -8 and -9 in SW1116 cells; assay: Caspase activity assay in cell lysates; assay type: cell-based, human; conditions: 8 h
Method: To evaluate the activity of caspases, cell lysates were prepared after their respective designated treatments. The incubation of the growing cells was carried out in 24-well microplates (Corning, NY, USA) for 24 h. The cells were then treated with different concentrations of leiocarpin E-7′-monoacetate under humidified air with 5% CO2 at 37°C. After 8 h of incubation, the culture medium was discarded, the cells collected and washed twice with PBS. The mixture was then centrifuged at 2,000 rpm for 5 min. The PBS supernatant was discarded and the cells (concentration, 5×10^6 cells) were collected. To these cells, ice-cold lysis buffer (150~200 μl) was added. The mixture was placed on ice for 30 min, and then centrifuged (10,000 rpm, 1 min) at 4°C. The supernatant, containing lysed protein, was carefully aspirated and transferred to a new tube. The protein concentration was then measured in 2 μl of the supernatant using the Bradford method. The caspase assays were then performed in 96-well microtiter plates (Keygentec, Nanjing, Jiangsu, China) by incubating 10 μl of protein cell lysate per sample in 80 μl of reaction buffer (1% NP-40, 20 mM Tris-HCl (pH 7.5), 137 mM NaCl, and 10% glycerol) containing 10 μl of caspase substrate (2 mM). Lysates were incubated at 37°C for 4 h. Measuremet was done at 405 nm on a Multiskan FC from Thermo Fisher Scientific Inc. (Waltham, MA, USA). The detailed analysis procedure is described in the manufacturer's protocol (Keygentec, Nanjing, Jiangsu, China).

SW1116 cells = assay: Annexin V-FITC/PI double staining by flow cytometry; assay type: cell-based, human; conditions: 36 h
Method: The growing cells were incubated in 24-well microplates (Corning, NY, USA) for 24 h. The cells were then treated with various concentrations of leiocarpin E-7′-monoacetate or taxol in humidified air with 5% CO2 at 37°C. After 36 h of incubation, the culture medium was discarded, and the cells were collected. For the apoptosis analysis, cells were suspended with 1×binding buffer (1×10^6 cells/ml) and then labeled with annexin V-FITC/PI, as per the manufacturer's instructions (Keygentec, Nanjing, Jiangsu, China). The analysis of the samples was performed by flow cytometry (Becton-Dickinson Bioscience, San Jose, CA, USA), and the acquired data was analyzed by the CellQuest software (Becton-Dickinson Bioscience, San Jose, CA, USA).

[8] = MTT, 24 h, 1.0-100.0 μM, read-out: IC50 SMMC-7721
[9] = MTT, 24 h, 1.0-100.0 μM, read-out: IC50 SW1116
[10] = 1.0-100.0 μM, read-out: IC50 HEK293T

Row | Compound | IC50 [2] [µM] | IC50 [3] [µM] | IC50 [4, 8] [µM] | IC50 [5, 9] [µM] | IC50 [6, 10] [µM] | cell viability of SW1116 cells compared with normal group (0 μM) ([5]; 24 h) | further results
1 | CC(=O)OC1C(c2ccccc2)OC2C=CC(=O)OC21 (centres unmarked) [7-acetylaltholactone] | – | – | – | – | – | – | IC50 (MCF7 (breast carcinoma)): 60.2 µM; IC50 (HepG2 (liver cancer)): 23.7 µM; IC50 [1]: 13.1 µM
2 | COc1cc([C@@H]2c3cc4c(cc3[C@@H](O[C@@H]3O[C@@H]5CO[C@@H](C)O[C@H]5[C@H](O)[C@H]3O)[C@H]3COC(=O)[C@H]23)OCO4)cc(OC)c1O [VP-16, Etoposide, reference compound] | > 100 | > 100 | > 100 | 41.9 ± 0.98 | > 100 | – | –
3 | hydroxypropyl-β-cyclodextrin [HP-β-CD] | – | – | – | – | – | – | inhibition of growth, SMMC-7721 ([4]; MTT, 24 h, 25.0-200.0 μM): did not show any inhibition; also recorded: no inhibitory effect; inhibition of growth, SW1116 ([5]; MTT, 24 h, 25.0-200.0 μM): did not show any inhibition; also recorded: no inhibitory effect; inhibitory activity against HEK293T ([6]; 25.0-200.0 μM): did not show any inhibitory activity

Now from value to compound, other results behind:

Row | IC50 [2] [µM] | IC50 [3] [µM] | IC50 [4, 8] [µM] | IC50 [5, 9] [µM] | Compound | IC50 [6, 10] [µM] | cell viability of SW1116 cells compared with normal group (0 μM) ([5]; 24 h) | further results
4 | > 100 | > 100 | > 100 | 93.18 ± 0.78 | CC(=O)O[C@H]1C=CC(=O)O[C@H]1[C@H]1O[C@@H]1c1ccccc1 [Cheliensisin A, (2R,3S)-6-oxo-2-((2S,3R)-3-phenyloxiran-2-yl)-3,6-dihydro-2H-pyran-3-yl acetate] | > 100 | – | IC50 ([4]; pristine compound, MTT, 24 h, 25.0-200.0 μM, read-out: IC50 SMMC-7721 Compound): 111 ± 2.41 µM; IC50 reduced by complexation with HP-β-CD, SMMC-7721 ([4]; complex vs pristine compound): 58%; IC50 ([5]; pristine compound, MTT, 24 h, 25.0-200.0 μM, read-out: IC50 SW1116 Compound): 93.18 ± 0.78 µM; IC50 reduced by complexation with HP-β-CD, SW1116 ([5]; complex vs pristine compound): 45%; IC50 ([6]; pristine compound, 25.0-200.0 μM, read-out: IC50 HEK293T Compound): > 200 µM
5 | > 100 | > 100 | > 100 | 80 ± 4.16 | O=C1C=CC[C@H]([C@H](O)[C@H](O)c2ccccc2)O1 [Goniodiol, (R)-6-((1R,2R)-1,2-dihydroxy-2-phenylethyl)-5,6-dihydro-2H-pyran-2-one] | > 100 | – | –
6 | 19.3 ± 1.42 | 18.2 ± 0.88 | 15.5 ± 1.11 | 17.5 ± 0.69 | O=C1C=CC[C@H]([C@@H](O)[C@H](Oc2cc(O)c3c(c2)O[C@H](c2ccccc2)CC3=O)c2ccccc2)O1 [Leiocarpin B, (S)-5-hydroxy-7-((1R,2R)-2-hydroxy-2-((R)-6-oxo-3,6-dihydro-2H-pyran-2-yl)-1-phenylethoxy)-2-phenylchroman-4-one] | > 100 | significantly less | –
7 | > 100 | > 100 | > 100 | 15.1 ± 1.87 | O=C1C=CC[C@H]([C@@H](O)[C@H]2O[C@H]([C@H]3CC=CC(=O)O3)[C@@H](c3ccccc3)c3ccccc32)O1 [Leiocarpin E, (R)-6-((R)-hydroxy((1S,3S,4S)-3-((R)-6-oxo-3,6-dihydro-2H-pyran-2-yl)-4-phenylisochroman-1-yl)methyl)-5,6-dihydro-2H-pyran-2-one] | > 100 | significantly less | –
8 | 50.1 ± 3.25 | 45 ± 4.27 | 61.7 ± 10.1 | 6.73 ± 0.89 | CC(=O)OC(C1CC=CC(=O)O1)C1OC(C2CC=CC(=O)O2)C(c2ccccc2)c2ccccc21 (centres unmarked) [Leiocarpin E-7′-monoacetate, leiocarpin E-7′-monoacetate] | > 100 | significantly less | ratio of ODsample to ODnegative (caspase activity) ([7]; SW1116, 3 μM): ≤ 1; ratio of ODsample to ODnegative (caspase activity) ([7]; SW1116, 10 μM): greater than 1; ratio of ODsample to ODnegative (caspase activity) ([7]; SW1116, 30 μM): greater than 1; early apoptosis rate (Q4) (SW1116 cells; SW1116, 3 μM): 2.6%; early apoptosis rate (Q4) (SW1116 cells; SW1116, 10 μM): 21.8%; early apoptosis rate (Q4) (SW1116 cells; SW1116, 30 μM): 55.2%
